Test results from patent publication EP2837626A1, “Indolinone derivatives as GRK5 modulators” (Max-Planck-Gesellschaft zur Förderung der Wissenschaften …, priority 2013, dated 2015).

Assays:
GRK5 = biological target: T1, GRK5 (Homo sapiens, UniProt P34947); test: IC50 determination of compounds inhibiting GRK5 by Millipore KinaseProfiler (radiometric filtration binding assay); type: biochemical; settings: 2 mg/mL casein, 40 minutes at room temperature
T1 construct: purchased Millipore
Protocol: IC50 values are determined by a radiometric based filtration binding assay, namely Millipore KinaseProfiler™. GRK5 is incubated with 8 mM MOPS pH 7.0, 0.2 mM EDTA, 2 mg/mL casein, 10 mM MgAcetate and […] (specific activity approx. 500 cpm/pmol, concentration as required). The reaction is initiated by the addition of the MgATP mix. After incubation for 40 minutes at room temperature, the reaction is stopped by the addition of 3 % phosphoric acid solution. 10 µL of the reaction is then spotted onto a P30 filtermat and washed three times for 5 minutes in 75 mM phosphoric acid and once in methanol prior to drying and scintillation counting.

full length GRK5 = biological target: T2, full length GRK5 (Homo sapiens, UniProt P34947); test: IC50 determination of compounds inhibiting GRK5 by ADP Glo Kinase Assay technology (Promega); type: biochemical; settings: 20 nM GRK5, 18.7 µM ATP, 10 µM casein, 12 concentrations, triplicates, read-out: GRK5 IC50
T2 construct: 6/2 fold concentrated full length GRK5 (Millipore, #14-714) in reaction buffer is added to each well; purchased Millipore 14-714
T2 sequence (P34947 whole entry): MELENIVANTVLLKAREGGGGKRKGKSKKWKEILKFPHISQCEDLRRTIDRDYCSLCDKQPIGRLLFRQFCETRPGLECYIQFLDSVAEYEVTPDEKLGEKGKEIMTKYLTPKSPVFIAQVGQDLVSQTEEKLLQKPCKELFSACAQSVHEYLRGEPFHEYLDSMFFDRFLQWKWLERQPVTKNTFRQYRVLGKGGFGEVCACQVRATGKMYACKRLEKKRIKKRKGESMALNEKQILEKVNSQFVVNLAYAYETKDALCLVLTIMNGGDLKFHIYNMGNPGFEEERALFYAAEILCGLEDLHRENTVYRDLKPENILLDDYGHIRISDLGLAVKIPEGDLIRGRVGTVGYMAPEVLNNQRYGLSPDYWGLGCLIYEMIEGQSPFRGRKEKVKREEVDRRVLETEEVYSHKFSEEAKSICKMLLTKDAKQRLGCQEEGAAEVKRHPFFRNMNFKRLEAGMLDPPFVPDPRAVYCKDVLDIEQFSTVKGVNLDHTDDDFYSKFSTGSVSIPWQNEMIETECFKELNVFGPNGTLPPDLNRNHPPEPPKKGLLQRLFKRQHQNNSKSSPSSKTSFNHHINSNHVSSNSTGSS

T1 sequence (P34947 whole entry): as above

IC50 (GRK5) | IC50 (full length GRK5) | SMILES
< 5 µM | < 5 µM | C[C@@H](NC(=O)c1ccc2c(c1)/C(=C/Nc1ccc(CN3CCCCC3)cc1)C(=O)N2)c1ccc(Cl)cc1 [Compound 73, (3Z)-N-[(1R)-1-(4-chlorophenyl)ethyl]-2-oxo-3-({[4-(piperidin-1-ylmethyl)phenyl]amino}methylene)indoline-5-carboxamide]
< 5 µM | < 5 µM | CC[C@@H](NC(=O)c1ccc2c(c1)/C(=C/c1[nH]c(C)c(C(=O)N3CCCCC3)c1C)C(=O)N2)c1ccccc1 [Compound 63, (3Z)-3-{[3,5-dimethyl-4-(piperidin-1-ylcarbonyl)-1H-pyrrol-2-yl]methylene}-2-oxo-N-[(1R)-1-phenylpropyl]indoline-5-carboxamide]
> 30 µM | > 30 µM | Cc1[nH]c(/C=C2\C(=O)Nc3ccc(C(=O)N[C@@H](C)c4ccccc4)cc32)c(C)c1C(=O)N1CCCCC1 [Compound 54, (3Z)-3-{[3,5-dimethyl-4-(piperidin-1-ylcarbonyl)-1H-pyrrol-2-yl]methylene}-2-oxo-N-[(1S)-1-phenylethyl]indoline-5-carboxamide]
> 30 µM | > 30 µM | Cc1[nH]c(/C=C2\C(=O)Nc3ccc(C(=O)N[C@@H](C)c4ccc(F)cc4)cc32)c(C)c1C(=O)N1CCCCC1 [Compound 64, (3Z)-3-{[3,5-dimethyl-4-(piperidin-1-ylcarbonyl)-1H-pyrrol-2-yl]methylene}-N-[(1S)-1-(4-fluorophenyl)ethyl]-2-oxoindoline-5-carboxamide]
> 30 µM | > 30 µM | Cc1[nH]c(/C=C2\C(=O)Nc3ccc(C(=O)N[C@@H](C)c4cccc(Cl)c4)cc32)c(C)c1C(=O)N1CCCCC1 [Compound 56, (3Z)-N-[(1S)-1-(3-chlorophenyl)ethyl]-3-{[3,5-dimethyl-4-(piperidin-1-ylcarbonyl)-1H-pyrrol-2-yl]methylene}-2-oxoindoline-5-carboxamide]
< 5 µM | < 5 µM | Cc1ccc([C@@H](C)NC(=O)c2ccc3c(c2)/C(=C/Nc2ccc(CN4CCCCC4)cc2)C(=O)N3)cc1 [Compound 72, (3Z)-N-[(1R)-1-(4-methylphenyl)ethyl]-2-oxo-3-({[4-(piperidin-1-ylmethyl)phenyl]amino}methylene)indoline-5-carboxamide]
< 5 µM | < 5 µM | C[C@@H](c1ccccc1)N(C)C(=O)c1ccc2c(c1)/C(=C/Nc1ccc(CN3CCCCC3)cc1)C(=O)N2 [Compound 71, (3Z)-N-methyl-2-oxo-N-[(1S)-1-phenylethyl]-3-({[4-(piperidin-1-ylmethyl)phenyl]amino}methylene)indoline-5-carboxamide]

Continued, compound first:

SMILES | IC50 (GRK5) | IC50 (full length GRK5)
CC[C@@H](NC(=O)c1ccc2c(c1)/C(=C/c1[nH]c(C)c(C(=O)N3CCC[C@@H]3CN3CCCC3)c1C)C(=O)N2)c1ccccc1 [Compound 48, (3Z)-3-[(3,5-dimethyl-4-{[(2R)-2-(pyrrolidin-1-ylmethyl)pyrrolidin-1-yl]carbonyl}-1H-pyrrol-2-yl)methylene]-2-oxo-N-[(1R)-1-phenylpropyl]indoline-5-carboxamide] | < 5 µM | < 5 µM
CC[C@H](NC(=O)c1ccc2c(c1)/C(=C/c1[nH]c(C)c(C(=O)N3CCC[C@H]3CN3CCCC3)c1C)C(=O)N2)c1ccccc1 [Compound 47, (3Z)-3-[(3,5-dimethyl-4-{[(2S)-2-(pyrrolidin-1-ylmethyl)pyrrolidin-1-yl]carbonyl}-1H-pyrrol-2-yl)methylene]-2-oxo-N-[(1S)-1-phenylpropyl]indoline-5-carboxamide] | 5 to 20 µM | 5 to 20 µM
Cc1[nH]c(/C=C2\C(=O)Nc3ccc(C(=O)N[C@@H]4CCc5ccccc54)cc32)c(C)c1C(=O)N1CCC[C@@H]1CN1CCCC1 [Compound 30, (3Z)-N-[(1R)-2,3-dihydro-1H-inden-1-yl]-3-[(3,5-dimethyl-4-{[(2R)-2-(pyrrolidin-1-ylmethyl)pyrrolidin-1-yl]carbonyl}-1H-pyrrol-2-yl)methylene]-2-oxoindoline-5-carboxamide] | 5 to 20 µM | 5 to 20 µM
CCC(NC(=O)c1ccc2c(c1)/C(=C/c1[nH]c(C)c(C(=O)N3CCN(C)CC3)c1C)C(=O)N2)c1ccc(Cl)cc1 (stereo not drawn) [Compound 12, (3Z)-N-[1-(4-chlorophenyl)propyl]-3-({3,5-dimethyl-4-[(4-methylpiperazin-1-yl)carbonyl]-1H-pyrrol-2-yl}methylene)-2-oxoindoline-5-carboxamide] | < 5 µM | < 5 µM
CC[C@@H](NC(=O)c1ccc2c(c1)/C(=C/c1[nH]c(C)c(C(=O)N3CCC(N4CCN(C)CC4)CC3)c1C)C(=O)N2)c1ccccc1 [Compound 53, (3Z)-3-[(3,5-dimethyl-4-{[4-(4-methylpiperazin-1-yl)piperidin-1-yl]carbonyl}-1H-pyrrol-2-yl)methylene]-2-oxo-N-[(1R)-1-phenylpropyl]indoline-5-carboxamide] | < 5 µM | 5 to 20 µM
